# Assays:
# [1] = test system: Green foxtail; assay: Test D green foxtail; format: in vivo
# Summary of the method: (§1)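 Visual injury ratings, 0 = no injury to 100 = complete control, taken 14 to 21 days after treatment. Test chemicals were in a surfactant-containing non-phytotoxic solvent; preemergence treatments went onto the sandy loam surface of seeded greenhouse pots within one day of sowing.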
# [2] = test system: common pursiane; assay: Test D common purslane; format: in vivo, Portulaca oleracea; conditions: Preemergence, 0 to 100 scale
# Summary of the method: as §1
# [3] = test system: Green foxtail; assay: Test D green foxtail; format: in vivo; conditions: Preemergence, 0 to 100 scale
# Summary of the method: as §1
# [4] = test system: Johnson grass; assay: Test D Johnson grass; format: in vivo, Sorghum halepense; conditions: Preemergence, 0 to 100 scale
# Summary of the method: as §1
# [5] = test system: surinam grass; assay: Test D surinam grass; format: in vivo, Brachiaria decumbens; conditions: Preemergence, 0 to 100 scale
# Summary of the method: as §1
# [6] = test system: common ragweed; assay: Test D common ragweed; format: in vivo, Ambrosia elatior; conditions: Preemergence, 0 to 100 scale
# Summary of the method: as §1
# [7] = test system: large crabgrass; assay: Test D large crabgrass; format: in vivo, Digitaria sanguinalis; conditions: Preemergence, 0 to 100 scale
# Summary of the method: as §1
# [8] = test system: dallisgrass; assay: Test D dallisgrass; format: in vivo, Paspalum dilatatum; conditions: Preemergence, 0 to 100 scale
# Summary of the method: as §1
# [9] = test system: purple nutsedge; assay: Test D purple nutsedge; format: in vivo, Cyperus rotundus; conditions: Preemergence, 0 to 100 scale
# Summary of the method: as §1
# [10] = test system: common groundsel; assay: Test D common groundsel; format: in vivo, Senecio vulgaris; conditions: Preemergence, 0 to 100 scale
# Summary of the method: as §1
# [11] = test system: guineagrass; assay: Test D guineagrass; format: in vivo, Panicum maximum; conditions: Preemergence, 0 to 100 scale
# Summary of the method: as §1
# [12] = test system: goosegrass; assay: Test D goosegrass; format: in vivo, Eleusine indica; conditions: Preemergence, 0 to 100 scale
# Summary of the method: as §1
# [13] = test system: Spanishneedles; assay: Test D Spanishneedles; format: in vivo, Bidens bipinnata; conditions: Preemergence, 0 to 100 scale
# Summary of the method: as §1
# [14] = test system: sandbur; assay: Test D sandbur; format: in vivo, Cenchrus echinatus; conditions: Preemergence, 0 to 100 scale
# Summary of the method: as §1
# [15] = test system: pitted morningglory; assay: Test D pitted morningglory; format: in vivo, Ipomoea lacunosa; conditions: Preemergence, 0 to 100 scale
# Summary of the method: as §1
# [16] = test system: tall mallow; assay: Test D tall mallow; format: in vivo, Malva sylvestris; conditions: Preemergence, 0 to 100 scale
# Summary of the method: as §1
# [17] = test system: itchgrass; assay: Test D itchgrass; format: in vivo, Rottboellia exaltata; conditions: Preemergence, 0 to 100 scale
# Summary of the method: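 Scoring used a 0–100 visual injury scale, with 0 meaning no effect and 100 complete control, assessed 14–21 days after application alongside untreated pots. Preemergence treatments went onto sandy loam surfaces of separately potted seeds within a day of sowing.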
# [18] = Rate 64 g/ha, Preemergence; 0 to 100 scale, 0 no injury, 100 complete control
# [19] = Rate 250 g/ha; Preemergence; 0 to 100 scale
# [20] = Rate 500 g/ha, Preemergence; 0 to 100 scale
# [21] = Rate 16 g/ha, 0 no injury, 100 complete control
# [22] = Rate 32 g/ha, 0 no injury, 100 complete control
# [23] = Rate 64 g/ha, 0 no injury, 100 complete control
# [24] = Rate 125 g/ha, Preemergence; 0 to 100 scale, 0 no injury, 100 complete control
# [25] = Rate 125 g/ha, 0 no injury, 100 complete control
smiles,measurement,setting,value
CC(C)N(C(=O)n1oc(=O)n(C2CCCCC2)c1=O)c1ccccc1 [Compound 112],"Plant response rating, Green foxtail","[1]; Preemergence; Rate 16 g/ha; 0 to 100 scale, 0 no injury, 100 complete control",0
same,"Plant response rating, Green foxtail","[1]; Preemergence; Rate 32 g/ha; 0 to 100 scale, 0 no injury, 100 complete control",0
same,"Plant response rating, Green foxtail","[1]; Rate 16 g/ha; Preemergence; 0 to 100 scale, 0 no injury, 100 complete control",0
same,"Plant response rating, Green foxtail","[1]; Rate 32 g/ha; Preemergence; 0 to 100 scale, 0 no injury, 100 complete control",98
same,Green foxtail plant response rating,[1]; [18],85
same,"Plant response rating, Green foxtail",[1]; [18],85
same,"Plant response rating, Green foxtail",[1]; [19],98
same,"Plant response rating, Green foxtail",[1]; [20],0
same,"Plant response rating, C. purslane",[2]; [21],0
same,"Plant response rating, C. purslane",[2]; [22],0
same,"Plant response rating, C. purslane",[2]; [23],0
same,"Plant response rating, C. purslane",[2]; Rate 250 g/ha,0
same,"Plant response rating, C. purslane",[2]; Rate 500 g/ha,0
same,"Plant response rating, Green foxtail",[3]; Rate 250 g/ha,98
same,"Plant response rating, Green foxtail",[3]; Rate 500 g/ha,0
same,"Plant response rating, Johnsongrass",[4]; [21],0
same,"Plant response rating, Johnsongrass",[4]; [22],0
same,"Plant response rating, Johnsongrass",[4]; [23],0
same,"Plant response rating, Johnsongrass",[4]; Rate 250 g/ha,0
same,"Plant response rating, Johnsongrass",[4]; Rate 500 g/ha,50
same,"Plant response rating, Surinam grass",[5]; [21],0
same,"Plant response rating, Surinam grass",[5]; [22],0
same,Surinam grass plant response rating,[5]; [23],0
same,"Plant response rating, Surinam grass",[5]; Rate 250 g/ha,0
same,"Plant response rating, Surinam grass",[5]; Rate 500 g/ha,98
same,"Plant response rating, C. ragweed",[6]; [21],0
same,"Plant response rating, C. ragweed",[6]; [22],0
same,"Plant response rating, C. ragweed",[6]; [23],0
same,"Plant response rating, C. ragweed",[6]; Rate 250 g/ha,0
same,"Plant response rating, C. ragweed",[6]; Rate 500 g/ha,0
same,"Plant response rating, Large crabgrass",[7]; [21],10
same,"Plant response rating, Large crabgrass",[7]; [22],10
same,"Plant response rating, Large crabgrass",[7]; [23],10
same,"Plant response rating, Large crabgrass",[7]; Rate 250 g/ha,100
same,"Plant response rating, Large crabgrass",[7]; Rate 500 g/ha,100
same,"Plant response rating, Dallisgrass",[8]; [21],30
same,"Plant response rating, Dallisgrass",[8]; [22],65
same,"Plant response rating, Dallisgrass",[8]; [23],70
same,"Plant response rating, Dallisgrass",[8]; Rate 250 g/ha,100
same,"Plant response rating, Dallisgrass",[8]; Rate 500 g/ha,100
same,"Plant response rating, Purple nutsedge",[9]; [21],0
same,"Plant response rating, Purple nutsedge",[9]; [22],0
same,Purple nutsedge plant response rating,[9]; [23],0
same,"Plant response rating, Purple nutsedge",[9]; Rate 250 g/ha,0
same,"Plant response rating, Purple nutsedge",[9]; Rate 500 g/ha,40
same,"Plant response rating, Com. groundsel",[10]; [21],0
same,"Plant response rating, Com. groundsel",[10]; [22],0
same,"Plant response rating, Com. groundsel",[10]; [23],0
same,"Plant response rating, Com. groundsel",[10]; Rate 250 g/ha,0
same,"Plant response rating, Com. groundsel",[10]; Rate 500 g/ha,10
same,"Plant response rating, Guineagrass",[11]; [21],0
same,"Plant response rating, Guineagrass",[11]; [22],0
same,"Plant response rating, Guineagrass",[11]; [23],40
same,"Plant response rating, Guineagrass",[11]; Rate 250 g/ha,90
same,"Plant response rating, Guineagrass",[11]; Rate 500 g/ha,100
same,"Plant response rating, Goosegrass",[12]; [21],40
same,"Plant response rating, Goosegrass",[12]; [22],40
same,"Plant response rating, Goosegrass",[12]; [23],85
same,"Plant response rating, Goosegrass",[12]; Rate 250 g/ha,100
same,"Plant response rating, Goosegrass",[12]; Rate 500 g/ha,100
same,"Plant response rating, Spanishneedles",[13]; [21],0
same,"Plant response rating, Spanishneedles",[13]; [22],0
same,Spanishneedles plant response rating,[13]; [23],0
same,"Plant response rating, Spanishneedles",[13]; Rate 500 g/ha,10
same,"Plant response rating, Sandbur",[14]; [21],0
same,"Plant response rating, Sandbur",[14]; [22],0
same,Sandbur plant response rating,[14]; [23],0
same,"Plant response rating, Sandbur",[14]; Rate 250 g/ha,0
same,"Plant response rating, Sandbur",[14]; Rate 500 g/ha,100
same,"Plant response rating, P. morninglory",[15]; [21],0
same,"Plant response rating, P. morninglory",[15]; [22],0
same,"Plant response rating, P. morninglory",[15]; [23],0
same,"Plant response rating, P. morninglory",[15]; Rate 250 g/ha,0
same,"Plant response rating, P. morninglory",[15]; Rate 500 g/ha,10
same,"Plant response rating, Tall Mallow",[16]; [21],0
same,"Plant response rating, Tall Mallow",[16]; [22],0
same,Tall Mallow plant response rating,[16]; [23],0
same,"Plant response rating, Tall Mallow",[16]; Rate 250 g/ha,0
same,"Plant response rating, Tall Mallow",[16]; Rate 500 g/ha,20
same,"Plant response rating, Itchgrass",[17]; [21],0
same,"Plant response rating, Itchgrass",[17]; [22],0
same,"Plant response rating, Itchgrass",[17]; [23],0
same,"Plant response rating, Itchgrass",[17]; Rate 250 g/ha,0
same,"Plant response rating, Itchgrass",[17]; Rate 500 g/ha,80
CC(C)N(C(=O)n1oc(=O)n(C)c1=O)c1ccc(F)cc1 [Compound 138],Green foxtail plant response rating,[1]; [18],100
same,"Plant response rating, Green foxtail",[1]; [18],100
same,Green foxtail plant response rating,[1]; [24],100
same,"Plant response rating, Green foxtail",[1]; [24],100
same,"Plant response rating, Green foxtail",[1]; [19],100
same,"Plant response rating, Green foxtail",[1]; [20],100
same,"Plant response rating, C. purslane",[2]; [23],0
same,"Plant response rating, C. purslane",[2]; [25],30
same,"Plant response rating, C. purslane",[2]; Rate 250 g/ha,100
same,"Plant response rating, C. purslane",[2]; Rate 500 g/ha,100
same,"Plant response rating, Green foxtail",[3]; Rate 250 g/ha,100
same,"Plant response rating, Green foxtail",[3]; Rate 500 g/ha,100
same,"Plant response rating, Johnsongrass",[4]; [23],40
same,"Plant response rating, Johnsongrass",[4]; [25],65
same,"Plant response rating, Johnsongrass",[4]; Rate 250 g/ha,100
same,"Plant response rating, Johnsongrass",[4]; Rate 500 g/ha,100
same,Surinam grass plant response rating,[5]; [23],40
same,Surinam grass plant response rating,[5]; [25],85
same,"Plant response rating, Surinam grass",[5]; Rate 250 g/ha,98
same,"Plant response rating, Surinam grass",[5]; Rate 500 g/ha,100
same,"Plant response rating, C. ragweed",[6]; [23],10
same,"Plant response rating, C. ragweed",[6]; [25],30
same,"Plant response rating, C. ragweed",[6]; Rate 250 g/ha,60
same,"Plant response rating, C. ragweed",[6]; Rate 500 g/ha,100
same,"Plant response rating, Large crabgrass",[7]; [23],100
same,"Plant response rating, Large crabgrass",[7]; [25],100
same,"Plant response rating, Large crabgrass",[7]; Rate 250 g/ha,100
same,"Plant response rating, Large crabgrass",[7]; Rate 500 g/ha,100
same,"Plant response rating, Dallisgrass",[8]; [23],100
same,"Plant response rating, Dallisgrass",[8]; [25],100
same,"Plant response rating, Dallisgrass",[8]; Rate 250 g/ha,100
same,"Plant response rating, Dallisgrass",[8]; Rate 500 g/ha,100
same,Purple nutsedge plant response rating,[9]; [23],30
same,Purple nutsedge plant response rating,[9]; [25],65
same,"Plant response rating, Purple nutsedge",[9]; Rate 250 g/ha,75
same,"Plant response rating, Purple nutsedge",[9]; Rate 500 g/ha,80
same,"Plant response rating, Com. groundsel",[10]; [23],40
same,"Plant response rating, Com. groundsel",[10]; [25],100
same,"Plant response rating, Com. groundsel",[10]; Rate 250 g/ha,100
same,"Plant response rating, Com. groundsel",[10]; Rate 500 g/ha,100
same,"Plant response rating, Guineagrass",[11]; [23],100
same,"Plant response rating, Guineagrass",[11]; [25],100
same,"Plant response rating, Guineagrass",[11]; Rate 250 g/ha,100
same,"Plant response rating, Guineagrass",[11]; Rate 500 g/ha,100
same,"Plant response rating, Goosegrass",[12]; [23],98
same,"Plant response rating, Goosegrass",[12]; [25],100
same,"Plant response rating, Goosegrass",[12]; Rate 250 g/ha,100
same,"Plant response rating, Goosegrass",[12]; Rate 500 g/ha,100
same,Spanishneedles plant response rating,[13]; [23],10
same,Spanishneedles plant response rating,[13]; [25],10
same,"Plant response rating, Spanishneedles",[13]; Rate 250 g/ha,30
same,"Plant response rating, Spanishneedles",[13]; Rate 500 g/ha,75
same,Sandbur plant response rating,[14]; [23],65
same,Sandbur plant response rating,[14]; [25],65
same,"Plant response rating, Sandbur",[14]; Rate 250 g/ha,98
same,"Plant response rating, Sandbur",[14]; Rate 500 g/ha,100
same,"Plant response rating, P. morninglory",[15]; [23],65
same,"Plant response rating, P. morninglory",[15]; [25],65
same,"Plant response rating, P. morninglory",[15]; Rate 250 g/ha,65
same,"Plant response rating, P. morninglory",[15]; Rate 500 g/ha,65
same,Tall Mallow plant response rating,[16]; [23],40
same,Tall Mallow plant response rating,[16]; [25],40
same,"Plant response rating, Tall Mallow",[16]; Rate 250 g/ha,70
same,"Plant response rating, Tall Mallow",[16]; Rate 500 g/ha,100
same,"Plant response rating, Itchgrass",[17]; [23],30
same,"Plant response rating, Itchgrass",[17]; [25],80
same,"Plant response rating, Itchgrass",[17]; Rate 250 g/ha,100
same,"Plant response rating, Itchgrass",[17]; Rate 500 g/ha,100

# — patent US6737383B1, “Herbicidal oxadiazolidines” (priority 1999, dated 2004)
